Reference: patent US20050287068A1, “Efficacy of active immunotherapy by integrating diagnostic with therapeutic methods” (priority 2004, published 2005)

System: PRAME 425-433
Assay: IFN-gamma ELISA on splenocytes restimulated with native peptide after intra-lymph-node immunization
Type: in vivo, HHD transgenic mice
Details: different concentrations of plasmid or peptide (peptide together with dsRNA), inguinal lymph nodes, days 0, 3, 14 and 18; spleens 10 days after immunization; FIG. 4 in pg IFN-gamma/ml
Description: HHD transgenic mice (n=4/group) were immunized with a PRAME 425-433 expressing plasmid (as described in U.S. Provisional Application No. __/______ (Atty Docket No. MANNK.053PR), entitled METHODS AND COMPOSITIONS TO ELICIT MULTIVALENT IMMUNE RESPONSES AGAINST DOMINANT AND SUBDOMINANT EPITOPES, EXPRESSED ON CANCER CELLS AND TUMOR STROMA, filed on date even with this disclosure, which is hereby incorporated by reference in its entirety) or peptide together with dsRNA (different concentrations of plasmid or peptide, by direct inoculation into the inguinal lymph nodes with 25 μl of plasmid or peptide in PBS/lymph node, on days 0, 3, 14 and 18. Spleens were harvested at 10 days after completion of immunization, splenocytes were incubated over 48 hours with native peptide (10 μg/ml), supernatants harvested and IFN-gamma concentration measured by ELISA.

Substance: PRAME 425-433 peptide: PRAME 425-433 peptide given together with dsRNA into inguinal lymph nodes (SLLQHLIGL; UniProt P78395 425-433, looked up, fragment)
- magnitude of the immune response (IFN-gamma concentration measured by ELISA): the larger the dose of peptide, the lower the immune response
